The term viability denotes a read-out of living cells in per cent, often relative to untreated cells.

Where a name gives a salt, the structure may show the parent alone.

These results are taken from publication PMC11995724, “Antibiotic target discovery by integrated phenotypic and activity-based profiling of electrophilic fragments” (Cell chemical biology, 2025).

The data set in a line: in vitro. As to conditions: human, hek293t cells.
Protocol: Mammalian cytotoxicity measurement was performed using Cell Titer-Glo 2.0 Cell Viability Assay (Promega, G9243) according to the manufacturer protocol. In brief, mammalian cells were seeded into 384-well white plates (Greiner, 781080) and incubated at 37°C for one day. Compounds from the Cys-Library were dispensed into the assay plate using epMotion 96. The plates were then incubated at 37°C for two days. An equal volume of Cell Titer-Glo 2.0 reagent was added into each well of the assay plate using epMotion 96 and incubated at 22°C for 10 min, followed by luminescence measurement using a Cytation 5 plate reader (BioTek).
For `Cc1ccc(CNC(=O)C(C)Cl)c2ccccc12` (centres unmarked) [7-O10, 2-chloro-N-[(4-methylnaphthalen-1-yl)methyl]propanamide], the viability at 48 h, 25 µM stood at 88.6%.
On to `Cc1noc(C)c1S(=O)(=O)N1CCCN(C(=O)C(C)Cl)CC1` (centres unmarked) [7-O11, 2-chloro-1-{4-[(3,5-dimethyl-1,2-oxazol-4-yl)sulfonyl]-1,4-diazepan-1-yl}propan-1-one], for which the viability at 48 h, 25 µM turned out to be 89.5%.
As for `CC(Cl)C(=O)N1CCC(c2cc3ccccc3[nH]2)C1` (centres unmarked) [7-O12, 2-chloro-1-[3-(1H-indol-2-yl)pyrrolidin-1-yl]propan-1-one], the viability at 48 h, 25 µM was 82.5%.
Regarding `Cc1cc(C2(NC(=O)C(C)Cl)CCOCC2)on1` (centres unmarked) [7-O13, 2-chloro-N-[4-(3-methyl-1,2-oxazol-5-yl)oxan-4-yl]propanamide], the viability at 48 h, 25 µM is 95.5%.
Turning to `Cc1noc(C)c1COC1CCN(C(=O)C(C)Cl)C1` (centres unmarked) [7-O14, 2-chloro-1-{3-[(3,5-dimethyl-1,2-oxazol-4-yl)methoxy]pyrrolidin-1-yl}propan-1-one], the viability at 48 h, 25 µM worked out at 90.9%.
As for `CC(Cl)C(=O)N1C2CCC1CC(c1ccnn1C)C2` (centres unmarked) [7-O15, 2-chloro-1-[3-(1-methyl-1H-pyrazol-5-yl)-8-azabicyclo[3.2.1]octan-8-yl]propan-1-one], the viability at 48 h, 25 µM was 88.6%.
For `CCC(C)C1CN(Cc2ccc(C)nc2)CCN1C(=O)C(C)Cl` (centres unmarked) [7-O16, 1-[2-(butan-2-yl)-4-[(6-methylpyridin-3-yl)methyl]piperazin-1-yl]-2-chloropropan-1-one], the viability at 48 h, 25 µM turned out to be 74.9%.
In the case of `CC(Cl)C(=O)NCc1nc2cccnc2n1C` (centres unmarked) [7-O17, 2-chloro-N-({3-methyl-3H-imidazo[4,5-b]pyridin-2-yl}methyl)propanamide], the viability at 48 h, 25 µM is 103%.
On to `CC(Cl)C(=O)NCc1cccc(N2C(=O)NC3(CCCC3)C2=O)c1` (centres unmarked) [7-O18, 2-chloro-N-[(3-{2,4-dioxo-1,3-diazaspiro[4.4]nonan-3-yl}phenyl)methyl]propanamide], for which the viability at 48 h, 25 µM is 103%.
Take `Cc1cc(C)n(CCCNC(=O)C(C)Cl)n1` (centres unmarked) [7-O19, 2-chloro-N-[3-(3,5-dimethyl-1H-pyrazol-1-yl)propyl]propanamide]: the viability at 48 h, 25 µM was determined as 78.1%.
With `CC(Cl)C(=O)NCC1CC(=O)N(c2ccccc2)C1` (centres unmarked) [7-O20, 2-chloro-N-[(5-oxo-1-phenylpyrrolidin-3-yl)methyl]propanamide], the viability at 48 h, 25 µM is 85.1%.
Regarding `Cc1nc2ccccc2n(CCCNC(=O)C(C)Cl)c1=O` (centres unmarked) [7-O21, 2-chloro-N-[3-(3-methyl-2-oxo-1,2-dihydroquinoxalin-1-yl)propyl]propanamide], the viability at 48 h, 25 µM was determined as 59.4%.
For `CC(Cl)C(=O)Nc1ccc(Cc2nnc3ncccn23)cc1` (centres unmarked) [7-O22, 2-chloro-N-[4-({[1,2,4]triazolo[4,3-a]pyrimidin-3-yl}methyl)phenyl]propanamide], the viability at 48 h, 25 µM was determined as 74.1%.
Consider `Cc1ccsc1CN(C(=O)CCl)C(C)C` [7-P03, 2-chloro-N-[(3-methylthiophen-2-yl)methyl]-N-(propan-2-yl)acetamide], for which the viability at 48 h, 25 µM worked out at 0.159%.
The value for `O=C(CCl)NCCC1CCCC1(F)F` (centres unmarked) [7-P04, 2-chloro-N-[2-(2,2-difluorocyclopentyl)ethyl]acetamide] was 1.08%; that for `CC(Cl)C(=O)NCc1nn(-c2ccccc2)c2c1CCC2` (centres unmarked) [7-P05, 2-chloro-N-({1-phenyl-1H,4H,5H,6H-cyclopenta[c]pyrazol-3-yl}methyl)propanamide] was 116%; that for `O=C(CCl)NC1CCN(C(=O)c2ccccc2)C1` (centres unmarked) [7-P06, N-(1-benzoylpyrrolidin-3-yl)-2-chloroacetamide] was 0.866%.
Consider `CC(Cl)C(=O)NC(C)C(=O)Nc1ccc(-n2cncn2)cc1` (centres unmarked) [7-P07, 2-chloro-N-(1-{[4-(1H-1,2,4-triazol-1-yl)phenyl]carbamoyl}ethyl)propanamide], for which the viability at 48 h, 25 µM is 98.6%.
For `O=C(CCl)NC1C=C(c2ccc(Cl)cc2)CCC1` (centres unmarked) [7-P08, 2-chloro-N-[3-(4-chlorophenyl)cyclohex-2-en-1-yl]acetamide], the viability at 48 h, 25 µM was 0.393%.
For `COc1ccc(Cl)c2c1CCCC2N(C)C(=O)C(C)Cl` (centres unmarked) [7-P09, 2-chloro-N-(8-chloro-5-methoxy-1,2,3,4-tetrahydronaphthalen-1-yl)-N-methylpropanamide], the viability at 48 h, 25 µM worked out at 86.7%.
Regarding `CCn1nc(C)c(CNC(=O)CCl)c1C` [7-P10, 2-chloro-N-[(1-ethyl-3,5-dimethyl-1H-pyrazol-4-yl)methyl]acetamide], the viability at 48 h, 25 µM was determined as 30%.
`CC(Cl)C(=O)NCCc1nc2cc(F)ccc2s1` (centres unmarked) [7-P11, 2-chloro-N-[2-(5-fluoro-1,3-benzothiazol-2-yl)ethyl]propanamide]: the viability at 48 h, 25 µM was determined as 89.1%.
As to `Cc1ccc(F)c(S(=O)(=O)NCCNC(=O)CCl)c1` [7-P12, 2-chloro-N-[2-(2-fluoro-5-methylbenzenesulfonamido)ethyl]acetamide], the viability at 48 h, 25 µM came to 1.05%.
The value for `Cc1nc(C)n(C2CCCN(C(=O)C(C)Cl)C2)n1` (centres unmarked) [7-P13, 2-chloro-1-[3-(3,5-dimethyl-1H-1,2,4-triazol-1-yl)piperidin-1-yl]propan-1-one] was 92.3%.
As to `NC(=O)c1ccccc1N1CCC(NC(=O)CCl)CC1` [7-P14, 2-[4-(2-chloroacetamido)piperidin-1-yl]benzamide hydrochloride], the viability at 48 h, 25 µM is 0.53%.
On to `CC(Cl)C(=O)NCC(=O)N(C)Cc1cccnc1` (centres unmarked) [7-P15, 2-chloro-N-({methyl[(pyridin-3-yl)methyl]carbamoyl}methyl)propanamide], for which the viability at 48 h, 25 µM was determined as 91.3%.
With `O=C(CCl)N[C@H]1CCN(S(=O)(=O)c2ccccc2)C1` [7-P16, N-[(3S)-1-(benzenesulfonyl)pyrrolidin-3-yl]-2-chloroacetamide], the viability at 48 h, 25 µM came out at 0.479%.
In the case of `Cc1cc(C)n(CC2CCN(C(=O)C(C)Cl)CC2)n1` (centres unmarked) [7-P17, 2-chloro-1-{4-[(3,5-dimethyl-1H-pyrazol-1-yl)methyl]piperidin-1-yl}propan-1-one], the viability at 48 h, 25 µM is 79.8%.
For the compound `CC(c1ccc(C(F)(F)F)cc1F)N(C)C(=O)CCl` (centres unmarked) [7-P18, 2-chloro-N-{1-[2-fluoro-4-(trifluoromethyl)phenyl]ethyl}-N-methylacetamide], the viability at 48 h, 25 µM is 0.35%.
The value for `Cc1nn(CC(C)C)c(Cl)c1C1CCCN1C(=O)C(C)Cl` (centres unmarked) [7-P19, 2-chloro-1-{2-[5-chloro-3-methyl-1-(2-methylpropyl)-1H-pyrazol-4-yl]pyrrolidin-1-yl}propan-1-one] was 78%; that for `O=C(CCl)NCC(F)(F)c1cc(-c2ccccc2)n[nH]1` [7-P20, 2-chloro-N-[2,2-difluoro-2-(3-phenyl-1H-pyrazol-5-yl)ethyl]acetamide] was 0.938%; that for `CN(CCc1ccccc1O)C(=O)CCl` [7-P21, 2-chloro-N-[2-(2-hydroxyphenyl)ethyl]-N-methylacetamide] was -0.172%.
Regarding `CC(Cl)C(=O)N1CCN(C(C)c2cccc(C#N)c2)CC1` (centres unmarked) [7-P22, 3-{1-[4-(2-chloropropanoyl)piperazin-1-yl]ethyl}benzonitrile], the viability at 48 h, 25 µM was determined as 66.4%.
Consider `COc1ccc(C=C(C#N)C(=O)Nc2cccc(C(F)(F)F)c2)cc1` [8-A03, 2-cyano-3-(4-methoxyphenyl)-N-[3-(trifluoromethyl)phenyl]prop-2-enamide], for which the viability at 48 h, 25 µM amounted to 72.2%.
Turning to `N#CC(=Cc1cccs1)C(=O)Nc1ccc(C(=O)O)cc1` [8-A04, 4-[2-cyano-3-(thiophen-2-yl)prop-2-enamido]benzoic acid], the viability at 48 h, 25 µM is 71.7%.
As for `COc1ccc(C=C(C#N)C(=O)Nc2ccccc2)cc1` [8-A05, 2-cyano-3-(4-methoxyphenyl)-N-phenylprop-2-enamide], the viability at 48 h, 25 µM was 76.8%.
Turning to `Cc1ccc(C=C(C#N)C(=O)Nc2ccc(N3CCOCC3)cc2)s1` [8-A06, 2-cyano-3-(5-methylthiophen-2-yl)-N-[4-(morpholin-4-yl)phenyl]prop-2-enamide], the viability at 48 h, 25 µM came out at 76.2%.
On to `CCOc1ccc(C=C(C#N)C(=O)Nc2cccc3ncccc23)cc1` [8-A07, 2-cyano-3-(4-ethoxyphenyl)-N-(quinolin-5-yl)prop-2-enamide], for which the viability at 48 h, 25 µM is 60.7%.
With `N#CC(=Cc1cnn(-c2ccc(Cl)cc2)c1)C(=O)NC1CCCCC1` [8-A08, 3-[1-(4-chlorophenyl)-1H-pyrazol-4-yl]-2-cyano-N-cyclohexylprop-2-enamide], the viability at 48 h, 25 µM came out at 60.6%.
On to `N#CC(=Cc1ccc2c(c1)OCO2)C(=O)NCc1ccccc1` [8-A09, 3-(1,3-dioxaindan-5-yl)-N-benzyl-2-cyanoprop-2-enamide], for which the viability at 48 h, 25 µM is 85.6%.
As to `Cc1cc(C)c(NC(=O)C(C#N)=Cc2cc(F)ccc2F)c(C)c1` [8-A10, 2-cyano-3-(2,5-difluorophenyl)-N-(2,4,6-trimethylphenyl)prop-2-enamide], the viability at 48 h, 25 µM amounted to 2.85%.
With `Cc1cccc(C)c1NC(=O)C(C#N)=Cc1ccc(OC(F)F)cc1` [8-A11, 2-cyano-3-[4-(difluoromethoxy)phenyl]-N-(2,6-dimethylphenyl)prop-2-enamide], the viability at 48 h, 25 µM was determined as 56.3%.
The value for `N#CC(=Cc1cc(F)ccc1F)C(=O)Nc1cc(Cl)ccc1Cl` [8-A12, 2-cyano-N-(2,5-dichlorophenyl)-3-(2,5-difluorophenyl)prop-2-enamide] was 61%; that for `Cc1c(C=C(C#N)C(=O)Nc2ccccc2F)cc(C#N)n1C` [8-A13, 2-cyano-3-(5-cyano-1,2-dimethyl-1H-pyrrol-3-yl)-N-(2-fluorophenyl)prop-2-enamide] was 83.9%.
For `COc1ccc(-c2n[nH]cc2C=C(C#N)C(=O)Nc2ccccc2)cc1` [8-A14, 2-cyano-3-[3-(4-methoxyphenyl)-1H-pyrazol-4-yl]-N-phenylprop-2-enamide] the value was 76.6%.
On to `N#CC(=Cc1ccccc1)C(=O)Nc1ccccc1-c1ccccc1` [8-A15, N-{[1,1'-biphenyl]-2-yl}-2-cyano-3-phenylprop-2-enamide], for which the viability at 48 h, 25 µM was determined as 90.1%.
For `Cc1ccccc1NC(=O)C(C#N)=Cc1cc(C)n(C2CC2)c1C` [8-A16, 2-cyano-3-(1-cyclopropyl-2,5-dimethyl-1H-pyrrol-3-yl)-N-(2-methylphenyl)prop-2-enamide] the value was 47.1%.
